Reference: patent publication US20230122540A1, “SYSTEMS AND METHODS TO TRACK THE EVOLUTION OF SINGLE CELLS” (Genentech, Inc., priority 2020, published 2023)
Entries after “also recorded” stand apart in the source; their conditions may differ. Read-outs that look alike come from different tables or passages of the source.

Key:
[1] = tested on: ATF4, CHOP, GADD34; test: qRT-PCR of pro-death genes downstream of ER stress; assay type: cell-based, human; details: for induction of pro-death ER stress genes: PC9 cells, with GNE-104, very low non-toxic concentrations; for expression of key pro-death ISR genes downstream of ER stress (ATF4, CHOP, GADD34): PC9, HCC4006 and NCI-H1975 cells
Method: RNA extraction and qRT-PCR: RNA was extracted using Qiagen RNeasy Plus kit following manufacturer's instruction. RNA was reverse transcribed using High-Capacity cDNA Reverse Transcription Kit (Thermo Fisher Scientific Cat. No. 4368814). qPCRs were performed using TaqMan™ Fast Advanced Master Mix (Thermo Fisher Scientific Cat. No. 4444557) on ABI QuantStudio 7 Flex Real-Time PCR Systems. HPRT1 was used as the internal control to quantify relative gene expression levels. Taqman probes were obtained from Thermo Fisher Scientific (Cat. No. 431182, 4448490). These probes were used in the study: ATF4 Hs00909569_g1, DDIT3/CHOP Hs00358796_g1, PPP1R15A/GADD34 Hs00169585_m1, SLC7A5 Hs01001183_m1, ETV4 Hs00385910_m1, SPRY4 Hs00540086_m1, DUSP6 Hs04329643_s1, HPRT1 Hs02800695_m1.

[2] = tested on: PC9 and H1975 cells; test: Clonogenic / CellTiter-Glo assay with pharmacological ER stress modulators; assay type: cell-based
Method: (§1) Clonogenic assay: Cells were seeded at desired densities in two to three replicates in 6-well plates and allowed to attach overnight. The following day cells were treated with the indicated compounds. Media containing the appropriate compounds was replenished every 48-72 hours. At the end of the assay, the cells were washed once with PBS, fixed and stained with crystal violet solution (Sigma Aldrich, HT90132) for 20 minutes, washed with water, and allowed to dry before scanning. For experiments shown in FIG. 18E erlotinib concentration were determined to match the cell viability effect to 1 μM GNE-069 in each cell line, so that 1 μM erlotinib was applied to PC-9 and HCC2935, and 100 nM erlotinib was applied to HCC4006 and HCC827. For experiments shown in FIG. 27B, cells were treated with either DMSO or 1 μM ISRIB (Tocris Cat. No. 5284) for 24 h, and then co-treated with EGFR inhibitors for 8 days. For other experiments cells were treated with 1 μM GNE-104 for 24 h, and then co-treated with 0.5 μg/ml Tunicamycin (Sigma Aldrich, T7765), or 1 nM Thapsigargin (Sigma Aldrich, T9033) for three days.
Cell viability and cell death quantification: For experiments shown in FIGS. 24C, 27D, the indicated cells were seeded at desired densities in replicates in 24-well plates and allowed to attach overnight. The following day cells were treated with the indicated compounds. Media containing the appropriate compounds was replenished every 48 hours. At each media change, cell viabilities were quantified using CellTiter-Glo Luminescent Cell Viability Assay (Promega, G7572). For experiments shown in FIG. 191 and FIG. 29D, PC9 cells were seeded in replicates in 96-well plates and allowed to attach overnight. The following day cells were treated with the indicated compounds or compound combinations at the indicated concentrations. Induction of cell death was quantified 24 h post-treatment using Caspase-Glo 3/7 Assay System (Promega, G8093) and cell survival were measured 72 h post-treatment using CellTiter-Glo Luminescent Cell Viability Assay (Promega, G7572). […]

[3] = molecular target: T1, EGFR (Homo sapiens, UniProt P00533, DEL746-750); test: Western blot of EGFR and pEGFR in HCC827 cells; assay type: cell-based; details: for EGFR degradation: HCC827 cells
T1 construct: does-dependent EGFR degradation induced by GNE-104 in HCC827 cells; endogenous in cells; host or cells: HCC827
Method: Immunoblotting: Immunoblotting performed using standard methods. Cells were briefly washed in ice-cold PBS and lysed in the following lysis buffer (1% NP40, 50 mM Tris, pH 7.8, 150 mM NaCl, 5 mM EDTA) plus protease inhibitor mixture (Complete mini tablets, Roche Applied Science, 11836170001) and phosphatase inhibitor mix (Thermo Fisher Scientific, 78420). Lysates centrifuged at 15,000 rpm for 10 minutes at 4° C. and the protein concentration determined by BCA (Thermo Fisher Scientific, 23227). Equal amounts of protein were resolved by SDS-PAGE on NuPAGE, 4-12% Bis-Tris Gels (Thermo Fisher Scientific, WG-1403) and transferred to nitrocellulose membrane (Bio-Rad, 170-4159). Membranes were blocked in blocking buffer (Li-Cor, 927-40000), incubated overnight with the indicated primary antibodies and analyzed by the addition of secondary antibodies IRDye 680LT Goat anti-Mouse IgG (Li-Cor, 926-68050) or IRDye 800CW Goat anti-Rabbit IgG (Li-Cor, 926-32211). The membranes were visualized on a Li-Cor Odyssey CLx Scanner. Anti-EGFR (MI-12-1) purchased from Medical and Biological Labs, anti-pEGFR (3777), anti β-Tubulin (2146) and anti-β-Actin (4970) purchased from Cell Signaling Technology. IR-conjugated secondary antibodies Goat anti-Mouse 680LT (926-68020), and Goat anti-Rabbit 800CW (926-32211) purchased from Li-Cor.

[4] = tested on: common EGFR mutant variants; test: in vitro kinase inhibition assay; assay type: biochemical; details: panel of 218 kinases
[5] = tested on: PC9 cells; test: Anti-growth effects in PC9 cells (clonogenic assay, cell counting, Incucyte imaging); assay type: cell-based, human; details: 1 μM
Method: Compound dose matching: […] Clonogenic assay: Cells were seeded at desired densities in two to three replicates in 6-well plates and allowed to attach overnight. The following day cells were treated with the indicated compounds. Media containing the appropriate compounds was replenished every 48-72 hours. At the end of the assay, the cells were washed once with PBS, fixed and stained with crystal violet solution (Sigma Aldrich, HT90132) for 20 minutes, washed with water, and allowed to dry before scanning. […] For experiments shown in FIG. 27B, cells were treated with either DMSO or 1 μM ISRIB (Tocris Cat. No. 5284) for 24 h, and then co-treated with EGFR inhibitors for 8 days.

[6] = tested on: PC9 cells; test: TraCe-seq experiment (barcoded PC9 cells, scRNA-seq on day four); assay type: cell-based, human; details: for cell cycle arrest (GO): fraction of cells in GO state inferred by gene expression, day four
Method: To conduct the TraCe-seq experiment, 600 PC9 cells carrying unique barcodes were randomly selected and these cells were expanded for ˜12 doublings to establish the starting population. Single cell transcriptional profiling on a fraction of this population at ˜30× coverage of the barcodes was performed to record the baseline transcriptional programs and relative clonal abundance. 200K of these cells were seeded and were treated with either erlotinib, GNE-104, or GNE-069. Cells were harvested on day four and profiled by 10×scRNA-seq to determine the relative fitness of each clone and capture treatment-induced transcriptional changes (FIG. 17D).
TraCe-Seq barcode assignment: TraCe-Seq barcode recovery from scRNA-Seq FASTQs was performed using Salmon (v. 0.1.1). Briefly, custom augmented Salmon index was created using human reference GRCh38 and transgene GFP fused to one of 100,000 30-nt GC-optimized barcode in library. Transcript expression of demultiplexed per-cell FASTQs were then quantified using custom Salmon index. Cells with single GFP-barcode expression were assigned to corresponding TraCe-Seq barcode. Cells with multiple TraCe-Seq barcodes expressed were assigned to a single TraCe-Seq barcode if expression one TraCe-Seq was 3-fold higher than other detected TraCe-Seq barcodes.

[7] = tested on: EGFR-mutant lung cancer cell lines; test: Clonogenic and CellTiter-Glo assay in EGFR-mutant lung cancer cell lines; assay type: cell-based, human; details: multiple EGFR-mutant lung cancer cell lines, vs erlotinib or GNE-069
Method: as §1, with “For experiments shown in FIG. 27B, cells were treated with either DMSO or 1 μM ISRIB (Tocris Cat. No. 5284) for 24 h, and then co-treated with EGFR inhibitors for 8 days. For other experiments cells were treated with 1 μM GNE-104 for 24 h, and then co-treated with 0.5 μg/ml Tunicamycin (Sigma Aldrich, T7765), or 1 nM Thapsigargin (Sigma Aldrich, T9033) for three days.” left out
Cell viability and cell death quantification: For experiments shown in FIGS. 24C, 27D, the indicated cells were seeded at desired densities in replicates in 24-well plates and allowed to attach overnight. […] At each media change, cell viabilities were quantified using CellTiter-Glo Luminescent Cell Viability Assay (Promega, G7572). […] Induction of cell death was quantified 24 h post-treatment using Caspase-Glo 3/7 Assay System (Promega, G8093) and cell survival were measured 72 h post-treatment using CellTiter-Glo Luminescent Cell Viability Assay (Promega, G7572). […]

[8] = tested on: H1975 cells; test: Crystal violet viability of H1975 cells, Osimertinib plus Degrader (Example 3); assay type: cell-based, human; details: 100 nM Osimertinib 4 hours, then + 1 uM Degrader 24 hours
Method: H1975 cells were treated first for 4 hours with 100 nM of the kinase inhibitor Osimertinib, then subjected to co-treatment with 100 nM Osimertinib+1 uM of Degrader for 24 hours.

[9] = tested on: PC9 cells; test: scRNA-seq gene expression in barcoded PC9 cells (Example 3); assay type: cell-based, human; details: for ISR pathway / ATF4 and SLC7A5 expression: Day 5 of treatment; for canonical MAPK target gene expression: day 5 of treatment
From the text: The above-described workflow was used to evaluate adaptation of mutated EGFR lung cancer cells to treatment strategies including EGFR kinase inhibition (Erlotinib) and EGFR protein degradation (Degrader G-104 or Degrader) using the PC9 (non-small cell lung carcinoma) cell line model. Six hundred PC9 cells containing unique barcodes were expanded separately for 12 days. The clones were then pooled into groups of cells with replicate barcodes and subjected to a first scRNA-seq on Day 1. Subsequently, the groups of cells were treated with either DMSO (vehicle control), Erlotinib, or Degrader. On Day 5 of the treatment, a second scRNA-seq was performed to evaluate an initial response of the cells to the treatments. Treatment with Erlotinib or Degrader was continued for approximately two more months. At the endpoint of the treatment, a final scRNA-seq was performed on the surviving cells. scRNA-seq data was analyzed with Next Generation Sequencing technologies, and barcode quantities were determined for both treatments, as illustrated in FIGS. 4A-4B.
Single cell RNA-seq data was further analyzed to evaluate how Degrader resistant clones respond differently to Erlotinib versus Degrader. […] Compared to Degrader, Erlotinib activated genes involved in ER protein processing pathways.
Thus, PC9 cells were treated with either siNTC+Erlotinib, siEGFR+Erlotinib, or siEGFR+DMSO, then analyzed for ISR and MAPK genes after 72 hrs (via scRNA-seq), and assessed for cell viability at Day 6. […] Results shown in FIG. 11D illustrate decreased efficacy of Erlotinib when combined with siEGFR, as indicated by greater numbers of viable cells in the Erlotinib+siEGFR treatment group compared to treatment by only Erlotinib.

[10] = tested on: PC9 cells; test: Initial response of PC9 cells to Erlotinib (viability, phase contrast imaging); assay type: cell-based, human; details: within five days, compared to the DMSO control
Method: Six hundred PC9 cells containing unique barcodes were expanded separately for 12 days. The clones were then pooled into groups of cells with replicate barcodes and subjected to a first scRNA-seq on Day 1. Subsequently, the groups of cells were treated with either DMSO (vehicle control) or Erlotinib. On Day 5 of the treatment, a second scRNA-seq was performed to evaluate an initial response of the cells to the treatments.

[11] = Crystal violet % Survival with ISR modulators (Example 3); assay type: cell-based
Method: Tunicamycin and Thapsigargin were used as inducers of ER stress, and Integrated Stress Response Inhibitor (ISRIB) was used to inhibit ISR activation. Cells were treated with Degrader, Degrader+Tunicamycin, or Degrader+Thapsigargin to assess the effect of ER stress on Degrader efficacy. In another experimental group, cells were treated either with Degrader, Erlotinib, or Erlotinib and ISRIB.

C/C=C(/C)C(=O)O[C@H]1C(C)=C2[C@H]([C@@H]1OC(=O)CCCCCCC)[C@@](C)(OC(C)=O)C[C@H](OC(=O)CCC)[C@@]1(O)[C@H]2OC(=O)[C@@]1(C)O [thapsigargin]
induction of pro-death ER stress genes [1]: greatly induced pro-death ER stress genes
cytotoxic activity of GNE-104 on co-treatment [2]: enhanced the cytotoxic activity of the degrader GNE-104

C#Cc1cccc(Nc2ncnc3cc(OCCOC)c(OCCOCC#CC#CCOCC(=O)N[C@H](C(=O)N4C[C@@H](O)CC4C(=O)NCc4ccc(-c5scnc5C)cc4)C(C)(C)C)cc23)c1 (stereo in doubt) [GNE-069, (2R,4S)-1-((S)-2-(2-((6-(2-((4-((3-Ethynylphenyl)amino)-7-(2-methoxyethoxy)quinazolin-6-yl)oxy)ethoxy)hexa-2,4-diyn-1-yl)oxy)acetamido)-3,3-dimethylbutanoyl)-4-hydroxy-N-(4-(4-methylthiazol-5-yl)benzyl)pyrrolidine-2-carboxamide]
EGFR degradation [3]: fails to engage VHL (due the specific stereochemistry in the VHL-binding moiety) and degrade EGFR
potency and selectivity profile in in vitro kinase inhibition assays [4]: comparable potency and selectivity profile as GNE-104
anti-growth effects (inhibiting cell growth) [5]: comparable activity by all three measures
cell cycle arrest (GO) [6]: far greater cell cycle arrest (GO) than GNE-104

tunicamycin
induction of pro-death ER stress genes [1]: greatly induced pro-death ER stress genes
cytotoxic activity of GNE-104 on co-treatment ([2]; PC9 cells, very low non-toxic concentrations of ER stress inducer): enhanced the cytotoxic activity of the degrader GNE-104

C#Cc1cccc(Nc2ncnc3cc(OCCOC)c(OCCOCC#CC#CCOCC(=O)N[C@H](C(=O)N4C[C@H](O)C[C@@H]4C(=O)NCc4ccc(-c5scnc5C)cc4)C(C)(C)C)cc23)c1 [GNE-104, (2R,4R)-1-((S)-2-(2-((6-(2-((4-((3-Ethynylphenyl)amino)-7-(2-methoxyethoxy)quinazolin-6-yl)oxy)ethoxy)hexa-2,4-diyn-1-yl)oxy)acetamido)-3,3-dimethylbutanoyl)-4-hydroxy-N-(4-(4-methylthiazol-5-yl)benzyl)pyrrolidine-2-carboxamide]
phospho-EGFR levels [3]: potently suppressed phospho-EGFR levels
EGFR degradation [3]: significant dose-dependent degradation of EGFR
anti-growth effects (inhibiting cell growth) [5]: far less efficient in inhibiting cell growth compared to erlotinib and GNE-069; also recorded: less efficacious
reduction of absolute number and diversity of TraCe-seq barcodes ([6]; day four of treatment): less effective in reducing both the absolute number and the diversity of TraCe-seq barcodes
anti-growth effect [7]: reduced anti-growth effect
effect on kinase inhibitor activity [8]: attenuated kinase inhibitor activity
ISR pathway / ATF4 and SLC7A5 expression [9]: does not activate the ISR pathway
canonical MAPK target gene expression [9]: strongly suppressed canonical MAPK target genes

C#Cc1cccc(Nc2ncnc3cc(OCCOC)c(OCCOC)cc23)c1 [Erlotinib]
reduction in viability [10]: greater than 98%
anti-growth effects (inhibiting cell growth) [5]: comparable activity by all three measures
cell cycle arrest (GO) [6]: far greater cell cycle arrest (GO) than GNE-104
expression of key pro-death ISR genes downstream of ER stress (ATF4, CHOP, GADD34) [1]: significantly induced expression of key pro-death ISR genes
ISR pathway / ATF4 and SLC7A5 expression [9]: additionally upregulated on Day 5 of Erlotinib treatment
canonical MAPK target gene expression [9]: strongly suppressed canonical MAPK target genes

C=CC(=O)Nc1cc(Nc2nccc(-c3cn(C)c4ccccc34)n2)c(OC)cc1N(C)CCN(C)C [osimertinib]
expression of key pro-death ISR genes downstream of ER stress (ATF4, CHOP, GADD34) [1]: significantly induced expression of key pro-death ISR genes

O=C(COc1ccc(Cl)cc1)NC1CCC(NC(=O)COc2ccc(Cl)cc2)CC1 (centres unmarked) [ISRIB]
activation of ATF4, CHOP, GADD34 induced by EGFR kinase inhibitors ([1]; ISRIB for 24 hours before adding EGFR kinase inhibitor): blunted activation of ATF4, CHOP, and GADD34
cell killing by EGFR kinase inhibitors ([2]; ISRIB pre-treatment, PC9 and H1975 cells): decreased cell killing in both PC9 and H1975 cells
efficacy of Erlotinib on addition of ISRIB (cell viability) [11]: loss of efficacy of Erlotinib
